# Active and inactive are the calls of the source.
# Key:
# Galanin receptor type 3 = Galanin receptor type 3 (Homo sapiens, UniProt O60755); assay: Fluorescence-based cell-based primary high throughput dose response assay to identify antagonists of the Galanin Receptor 3 (GalR3).; format: functional
# cells = format: functional, cell-based; settings: HEK-CNG
# [1] = ARNT/TACC3 interaction disruptors, potency, confirmation, biochemical, AlphaScreen, cherry-picked samples (AID 651703); format: functional, Homo sapiens;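 note: His-tagged ARNT PAS-B domain paired with GST-TACC3 E629A dimer coactivator fragment; potency of inhibitors that break up the complex and lower AlphaScreen signal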
# [2] = molecular target: Endoplasmic reticulum aminopeptidase 1 (Homo sapiens, UniProt Q9NZ08); assay: ERAP1 aminopeptidase inhibitors, dose response, biochemical, cherry-pick, set 2, plate reader (AID 743314)
# Endoplasmic reticulum aminopeptidase 1, sequence (Q9NZ08 whole entry): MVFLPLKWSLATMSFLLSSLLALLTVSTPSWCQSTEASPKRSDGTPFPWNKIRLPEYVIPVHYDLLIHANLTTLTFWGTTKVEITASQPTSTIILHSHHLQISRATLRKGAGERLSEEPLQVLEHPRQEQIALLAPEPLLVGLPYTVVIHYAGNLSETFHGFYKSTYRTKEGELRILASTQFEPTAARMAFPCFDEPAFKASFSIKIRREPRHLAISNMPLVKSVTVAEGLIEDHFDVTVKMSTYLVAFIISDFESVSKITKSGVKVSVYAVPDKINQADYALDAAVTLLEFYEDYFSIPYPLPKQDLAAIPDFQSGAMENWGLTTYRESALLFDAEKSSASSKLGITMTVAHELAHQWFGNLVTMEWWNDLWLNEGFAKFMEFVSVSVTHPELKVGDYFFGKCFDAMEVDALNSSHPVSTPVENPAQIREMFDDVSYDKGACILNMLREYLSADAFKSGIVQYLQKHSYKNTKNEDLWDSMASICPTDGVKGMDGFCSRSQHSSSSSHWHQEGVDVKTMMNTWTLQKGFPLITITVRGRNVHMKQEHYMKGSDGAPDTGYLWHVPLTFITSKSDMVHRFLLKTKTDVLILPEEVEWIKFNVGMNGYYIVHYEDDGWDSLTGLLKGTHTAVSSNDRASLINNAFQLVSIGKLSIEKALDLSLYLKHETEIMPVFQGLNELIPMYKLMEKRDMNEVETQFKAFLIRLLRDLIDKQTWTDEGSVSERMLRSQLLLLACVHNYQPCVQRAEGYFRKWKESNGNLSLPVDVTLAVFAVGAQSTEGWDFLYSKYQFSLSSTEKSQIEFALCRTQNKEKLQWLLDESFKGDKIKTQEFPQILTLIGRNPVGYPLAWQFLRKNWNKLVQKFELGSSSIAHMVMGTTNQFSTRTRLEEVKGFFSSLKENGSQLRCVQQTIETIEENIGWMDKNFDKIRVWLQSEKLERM
# Coagulation factor XII = molecular target: T1, Coagulation factor XII (Homo sapiens, UniProt P00748); format: functional;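 note: activated factor XIIa alpha cleaving a fluorogenic AMC peptide substrate; inhibitor potency from loss of enzyme activity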
# T1 sequence (P00748 whole entry): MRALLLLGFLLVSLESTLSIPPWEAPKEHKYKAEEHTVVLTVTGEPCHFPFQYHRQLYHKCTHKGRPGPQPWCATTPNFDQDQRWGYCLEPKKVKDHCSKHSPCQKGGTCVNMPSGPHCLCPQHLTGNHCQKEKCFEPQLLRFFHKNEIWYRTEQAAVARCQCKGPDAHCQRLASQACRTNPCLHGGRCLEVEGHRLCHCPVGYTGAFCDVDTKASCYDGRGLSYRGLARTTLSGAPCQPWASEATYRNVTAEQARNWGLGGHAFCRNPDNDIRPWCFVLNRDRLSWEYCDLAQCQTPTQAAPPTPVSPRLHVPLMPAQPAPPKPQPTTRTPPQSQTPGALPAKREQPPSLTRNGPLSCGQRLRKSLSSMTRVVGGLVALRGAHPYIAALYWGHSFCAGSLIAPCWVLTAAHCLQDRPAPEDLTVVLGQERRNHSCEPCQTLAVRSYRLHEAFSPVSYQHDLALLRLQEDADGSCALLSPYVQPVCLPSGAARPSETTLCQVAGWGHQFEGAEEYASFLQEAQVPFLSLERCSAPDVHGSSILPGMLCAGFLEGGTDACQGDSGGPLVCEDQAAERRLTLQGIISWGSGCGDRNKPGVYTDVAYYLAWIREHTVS
# Beta-lactamase [3] = molecular target: T2, Beta-lactamase (Pseudomonas aeruginosa, UniProt Q79MP6); assay: […] counterscreen for selective VIM-2 inhibitors: dose response biochemical high throughput screening assay to identify inhibitors of IMP-1 metallo-beta-lactamase.
# T2 sequence (Q79MP6 whole entry): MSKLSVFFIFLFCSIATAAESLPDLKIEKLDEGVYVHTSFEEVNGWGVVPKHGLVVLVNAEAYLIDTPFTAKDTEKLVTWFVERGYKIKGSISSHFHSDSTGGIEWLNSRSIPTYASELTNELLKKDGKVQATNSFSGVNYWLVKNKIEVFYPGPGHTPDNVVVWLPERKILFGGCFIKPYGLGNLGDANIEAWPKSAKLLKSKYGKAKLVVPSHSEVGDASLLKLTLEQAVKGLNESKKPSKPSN
# Beta-lactamase [4] = molecular target: T3, Beta-lactamase (Salmonella choleraesuis (strain SC-B67), UniProt Q5J463); assay: Epi-absorbance-based counterscreen for selective VIM-2 inhibitors: dose response biochemical high throughput screening assay to identify inhibitors of TEM-1 serine-beta-lactamase.
# T3 sequence (Q5J463 whole entry): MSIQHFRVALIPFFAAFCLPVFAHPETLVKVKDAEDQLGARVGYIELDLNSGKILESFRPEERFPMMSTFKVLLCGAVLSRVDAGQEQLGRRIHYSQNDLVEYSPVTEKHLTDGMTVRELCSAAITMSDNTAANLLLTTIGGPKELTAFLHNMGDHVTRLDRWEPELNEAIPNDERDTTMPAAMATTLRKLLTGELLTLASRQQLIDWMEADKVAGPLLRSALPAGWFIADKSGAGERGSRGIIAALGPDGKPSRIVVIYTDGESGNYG
# Beta-lactamase [5] = molecular target: T2, Beta-lactamase; assay: IMP-1 metallo-beta-lactamase inhibitors, dose response, selectivity assay for VIM-2 inhibitor project, biochemical, epi-absorbance (AID 1920)
# [6] = HEK293T cell cytotoxicity, dose response, cytotoxicity control, luminescence plate reader, powder samples, set 4 (AID 651863); format: functional, cell-based; settings: HEK293
# [7] = Fluorescence-based cell-based high throughput dose response assay for inhibitors of the interaction of nucleotide-binding oligomerization domain containing 2 (NOD2) and the receptor-interacting serine-threonine kinase 2 (RIPK2).; format: functional; settings: Homo sapiens
# [8] = molecular target: Metabotropic glutamate receptor 5 (Rattus norvegicus, UniProt P31424); assay: Identification of a glycine sulfonamide based non-MPEP site positive allosteric potentiator (PAM) of mGlu5 (calcium_assay).; format: functional
# Metabotropic glutamate receptor 5, sequence (P31424 whole entry): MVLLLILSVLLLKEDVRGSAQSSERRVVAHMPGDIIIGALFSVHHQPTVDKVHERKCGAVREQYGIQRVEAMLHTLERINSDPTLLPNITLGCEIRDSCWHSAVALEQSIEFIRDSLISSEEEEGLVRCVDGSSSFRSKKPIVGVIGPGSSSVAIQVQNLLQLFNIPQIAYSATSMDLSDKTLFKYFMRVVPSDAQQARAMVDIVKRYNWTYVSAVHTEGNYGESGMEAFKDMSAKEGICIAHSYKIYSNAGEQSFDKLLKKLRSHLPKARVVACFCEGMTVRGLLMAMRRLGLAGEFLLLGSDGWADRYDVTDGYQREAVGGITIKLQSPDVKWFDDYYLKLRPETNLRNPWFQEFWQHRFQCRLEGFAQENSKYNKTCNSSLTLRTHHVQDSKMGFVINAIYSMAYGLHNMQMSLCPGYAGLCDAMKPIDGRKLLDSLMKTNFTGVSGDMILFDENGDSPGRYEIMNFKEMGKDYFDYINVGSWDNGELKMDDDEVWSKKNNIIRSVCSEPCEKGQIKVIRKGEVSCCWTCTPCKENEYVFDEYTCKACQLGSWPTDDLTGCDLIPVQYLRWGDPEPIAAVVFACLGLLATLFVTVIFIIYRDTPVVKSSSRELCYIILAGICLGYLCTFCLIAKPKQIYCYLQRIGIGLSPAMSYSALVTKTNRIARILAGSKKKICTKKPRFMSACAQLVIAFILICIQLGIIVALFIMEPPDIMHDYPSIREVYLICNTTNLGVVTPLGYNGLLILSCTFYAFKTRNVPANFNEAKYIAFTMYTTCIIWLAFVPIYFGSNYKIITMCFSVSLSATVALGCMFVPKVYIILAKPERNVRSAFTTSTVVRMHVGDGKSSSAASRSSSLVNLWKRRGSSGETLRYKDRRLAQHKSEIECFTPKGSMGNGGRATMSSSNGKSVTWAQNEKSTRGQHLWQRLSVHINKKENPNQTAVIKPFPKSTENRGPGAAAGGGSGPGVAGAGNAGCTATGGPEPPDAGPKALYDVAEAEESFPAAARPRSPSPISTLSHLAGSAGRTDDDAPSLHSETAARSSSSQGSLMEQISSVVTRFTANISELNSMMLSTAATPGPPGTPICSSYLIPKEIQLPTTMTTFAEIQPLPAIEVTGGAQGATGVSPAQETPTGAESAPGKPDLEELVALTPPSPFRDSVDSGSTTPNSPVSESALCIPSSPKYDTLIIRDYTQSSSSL
# Beta-lactamase [9] = molecular target: T2, Beta-lactamase
# Beta-lactamase [10] = molecular target: T3, Beta-lactamase
# [11] = inhibitors of clade B AD8 Env fusion, dose response, cell-based, cherry-pick (AID 652062); format: functional;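 note: luciferase signal from cell-cell fusion driven by HIV-1 clade B AD8 Env; potency is for inhibitors of fusion seen as a drop in luminescence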
# [12] = NIH/3T3 fibroblast cytotoxicity, dose response, cytotoxicity control for T. cruzi growth inhibitor project, cell-based, cherry-pick samples, set 2 (AID 651817); format: functional; settings: NIH3T3
# [13] = intracellular Trypanosoma cruzi inhibitors in host cells – cell-based, plate reader, cherry-pick samples, set 3, dose response (AID 651818); format: functional;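 note: compounds incubated with infected cells for about four days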
# [14] = CEM21 lymphoblast cell cytotoxicity, dose response, cytotoxicity control for viral fusion inhibitor project, CellTiter-Glo luminescence, cherry-picked (AID 652042); format: functional, cell-based;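 note: potency for signal decrease meaning cytotoxicity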
# [15] = inhibitors of HIV Env-driven cell fusion, dose response, cherry-pick (AID 652057); format: functional, cell-based
# [16] = Counterscreen for antagonists of the human trace amine associated receptor 1 (hTAAR1): Fluorescence-based cell-based high throughput dose response assay to identify nonselective Ga16 antagonists.; format: functional
# [17] = Luminescence Cell-Based Dose Response HTS to Identify Activators of Luciferase Translation or Activity in H4 […] Cells. [Related pubchem assays: 1829 (Project Summary), 1814 (Primary HTS)]; format: functional
# [18] = molecular target: T4, Trace amine-associated receptor 1 (Homo sapiens, UniProt Q96RJ0); assay: Counterscreen for antagonists of the human trace amine associated receptor 1 (hTAAR1): Fluorescence-based cell-based high throughput dose response assay to identify TAAR1 Agonists.; format: functional
# T4 sequence (Q96RJ0 whole entry): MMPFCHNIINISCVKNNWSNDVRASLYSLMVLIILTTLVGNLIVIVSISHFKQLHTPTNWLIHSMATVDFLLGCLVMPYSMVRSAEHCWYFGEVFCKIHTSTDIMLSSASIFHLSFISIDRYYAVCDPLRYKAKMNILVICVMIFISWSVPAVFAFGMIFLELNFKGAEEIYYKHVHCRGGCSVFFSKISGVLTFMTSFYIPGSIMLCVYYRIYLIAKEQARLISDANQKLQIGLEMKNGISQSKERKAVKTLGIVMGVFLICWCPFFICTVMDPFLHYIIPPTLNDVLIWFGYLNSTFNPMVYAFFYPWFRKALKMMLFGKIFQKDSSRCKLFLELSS
# [19] = molecular target: T4, Trace amine-associated receptor 1; assay: Fluorescence-based cell-based high throughput dose response assay to identify antagonists of the human trace amine associated receptor 1 (TAAR1).; format: functional
# [20] = Counterscreen for […] of the human trace amine associated receptor 1 (TAAR1): Fluorescence-based cell-based high throughput dose response assay to identify nonselective Ga16 agonists.; format: functional
# H4 = assay: Luminescence Cell-Based Dose Response HTS to Identify Activators of 5'UTR Stem-Loop Driven Prion Protein mRNA Translation in H4 Neuroglioblastoma Cells. [Related pubchem assays: 1829 (Project Summary), 1814 (Primary HTS)]; format: functional; settings: Homo sapiens
# [21] = molecular target: T5, Aryl hydrocarbon receptor (Homo sapiens, UniProt P35869); assay: Luminescence-based cell-based high throughput dose response assay for activators of the Aryl Hydrocarbon Receptor (AHR). [Related pubchem assays: 2796 (Primary screen (AHR activators in singlicate)), 2845 (Confirmation screen (AHR activators in triplicate)), 434939 (Counterscreen (PXR activators in triplicate)), 2804 (Summary (AHR activators))]; format: ADME
# T5 sequence (P35869 whole entry): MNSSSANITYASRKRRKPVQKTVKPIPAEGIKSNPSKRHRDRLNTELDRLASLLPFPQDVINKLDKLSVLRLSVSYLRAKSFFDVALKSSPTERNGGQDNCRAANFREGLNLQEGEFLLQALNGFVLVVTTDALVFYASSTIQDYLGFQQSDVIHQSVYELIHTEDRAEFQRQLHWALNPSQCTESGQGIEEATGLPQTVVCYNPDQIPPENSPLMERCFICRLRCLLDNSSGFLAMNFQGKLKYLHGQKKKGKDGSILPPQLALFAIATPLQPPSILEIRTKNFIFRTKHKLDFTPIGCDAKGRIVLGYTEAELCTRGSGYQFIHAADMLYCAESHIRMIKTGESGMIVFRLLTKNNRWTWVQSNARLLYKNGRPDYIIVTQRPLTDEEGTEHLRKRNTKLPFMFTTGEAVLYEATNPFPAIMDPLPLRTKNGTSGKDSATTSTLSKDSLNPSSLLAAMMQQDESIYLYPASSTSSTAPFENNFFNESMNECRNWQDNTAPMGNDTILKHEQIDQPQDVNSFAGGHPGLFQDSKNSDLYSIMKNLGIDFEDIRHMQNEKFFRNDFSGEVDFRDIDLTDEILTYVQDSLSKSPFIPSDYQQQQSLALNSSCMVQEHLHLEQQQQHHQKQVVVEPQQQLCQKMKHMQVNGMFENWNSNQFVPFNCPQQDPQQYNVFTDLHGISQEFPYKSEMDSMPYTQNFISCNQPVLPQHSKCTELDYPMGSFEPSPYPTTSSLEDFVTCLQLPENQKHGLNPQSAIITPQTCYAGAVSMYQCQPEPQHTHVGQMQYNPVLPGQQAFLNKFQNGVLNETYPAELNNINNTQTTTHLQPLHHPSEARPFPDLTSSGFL
# Galanin receptor type 3, sequence (O60755 whole entry): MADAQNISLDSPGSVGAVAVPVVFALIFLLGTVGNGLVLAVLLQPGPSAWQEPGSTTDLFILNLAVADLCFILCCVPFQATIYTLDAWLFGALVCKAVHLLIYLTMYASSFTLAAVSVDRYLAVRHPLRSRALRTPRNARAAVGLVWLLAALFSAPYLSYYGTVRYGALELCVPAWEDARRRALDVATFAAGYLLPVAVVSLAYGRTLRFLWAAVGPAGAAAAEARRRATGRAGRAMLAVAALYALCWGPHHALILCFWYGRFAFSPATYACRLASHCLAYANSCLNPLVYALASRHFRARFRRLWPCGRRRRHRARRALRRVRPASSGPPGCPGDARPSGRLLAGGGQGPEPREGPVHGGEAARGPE
compound,measurement,setting,value
C[C@H]1C[C@H]2[C@@H]3CCC4=CC(=O)C=C[C@]4(C)[C@@]3(F)[C@@H](O)C[C@]2(C)[C@@]1(O)C(=O)CO [BETAMETHASONE],IC50,Galanin receptor type 3,> 29.9 µM (inactive)
same,EC50,cells,> 29.9 µM (inactive)
COC(=O)C(CC#Cc1ccc2c(c1)[C@]1(C(=O)N2)[C@H](c2ccc(O)cc2)N2[C@H](c3ccccc3)[C@H](c3ccccc3)OC(=O)[C@H]2[C@@H]1C(=O)N1CCCCCCC1)C(=O)OC,AC50,[1],104 µM (active)
COc1ccc2c3c([nH]c2c1)[C@@H](CO)N(Cc1ccccc1OC)CC31CN(C)C1,AC50,[2],15.8 µM (active)
CSc1nc(SCC(=O)O)c2c3c(sc2n1)COC(C)(C)C3,IC50,Coagulation factor XII,> 50 µM (inactive)
same,IC50,Beta-lactamase [3],> 59.6 µM (inactive)
same,IC50,Beta-lactamase [4],> 59.6 µM (inactive)
same,IC50,Beta-lactamase [5],> 59.6 µM (inactive)
O=C(O)C1CCCCC1C(=O)N1CCc2ccccc2[C@H]1C(=O)NC12CC3CC(CC(C3)C1)C2 (stereo not given in full),AC50,[6],> 52 µM (inactive)
C=CCOc1ccccc1C(=O)/C=C1/C(=O)Nc2ccccc21,IC50,[7],3.58 µM (active)
CCS(=O)(=O)N1c2ccccc2CC[C@H]1C(=O)Nc1cccc(Cl)c1,EC50,[8],1.74 µM
O=C(Nc1ccc(C(F)(F)F)cc1)c1ccc(NC(=O)C2CCCO2)cc1 (stereo not given),IC50,Beta-lactamase [9],47.5 µM (inactive)
same,IC50,Beta-lactamase [10],> 59.6 µM (inactive)
C[C@@H]1CN([C@H](C)CO)C(=O)c2cccc(NC(=O)c3ccncc3)c2O[C@H]1CN(C)Cc1ccc(Cl)c(Cl)c1,AC50,[11],29.8 µM (active)
same,AC50,[12],27.6 µM (active)
same,AC50,[13],0.08 µM (active)
same,AC50,[14],38.5 µM (active)
same,AC50,[15],7.3 µM (active)
O=C(Nc1ccccc1OC(=O)c1ccc(Cl)cc1)c1ccc(Cl)cc1,IC50,[16],> 9.97 µM (active)
same,EC50,[17],> 120 µM (not active)
same,EC50,[18],15.7 µM (inactive)
same,IC50,[19],7.96 µM (active)
same,EC50,[20],> 29.9 µM (inactive)
same,EC50,H4,13.7 µM (active)
same,EC50,[21],4.89 µM (active)
